Test system: E. coli strain W3110
Assay: Synergy assays: Biolog chemical sensitivity panels with Group IB metal, coefficient of drug interaction (CDI) from relative growth
Format: cell-based
Conditions: for CDI (coefficient of drug interaction), copper mixed with biocide: Copper (mM) section; for CDI (coefficient of drug interaction), gold + biocide: Gold (μM)
[1] = 1st of 3 copper concentrations (value not shown), 4th of four biocide concentrations
[2] = 2nd of 3 copper concentrations (value not shown), 4th of four biocide concentrations
[3] = 3rd of 3 copper concentrations (value not shown), 4th of four biocide concentrations
[4] = Copper (mM), 1st of 3 copper concentrations (head line not shown), biocide concentration 1 of 4, E. coli
[5] = Copper (mM), 1st of 3 copper concentrations (head line not shown), biocide concentration 3 of 4, E. coli
[6] = Copper (mM), 1st of 3 copper concentrations (head line not shown), biocide concentration 4 of 4, E. coli
[7] = Copper (mM), 2nd of 3 copper concentrations (head line not shown), biocide concentration 1 of 4, E. coli
[8] = Copper (mM), 2nd of 3 copper concentrations (head line not shown), biocide concentration 2 of 4, E. coli
[9] = Copper (mM), 2nd of 3 copper concentrations (head line not shown), biocide concentration 3 of 4, E. coli
[10] = Copper (mM), 2nd of 3 copper concentrations (head line not shown), biocide concentration 4 of 4, E. coli
[11] = Copper (mM), 3rd of 3 copper concentrations (head line not shown), biocide concentration 1 of 4, E. coli
[12] = Copper (mM), 3rd of 3 copper concentrations (head line not shown), biocide concentration 2 of 4, E. coli
[13] = Copper (mM), 3rd of 3 copper concentrations (head line not shown), biocide concentration 3 of 4, E. coli
[14] = Copper (mM), 3rd of 3 copper concentrations (head line not shown), biocide concentration 4 of 4, E. coli
[15] = first of 3 gold concentrations, biocide concentration 3 of 4
[16] = first of 3 gold concentrations, biocide concentration 4 of 4
[17] = second of 3 gold concentrations, biocide concentration 3 of 4
[18] = second of 3 gold concentrations, biocide concentration 4 of 4
[19] = third of 3 gold concentrations, biocide concentration 3 of 4
[20] = third of 3 gold concentrations, biocide concentration 4 of 4
[21] = Silver 0.5 μM, biocide concentration 1 of 4
[22] = Silver 0.5 μM, biocide concentration 2 of 4
[23] = Silver 0.5 μM, biocide concentration 3 of 4
[24] = Silver 0.5 μM, biocide concentration 4 of 4
[25] = Silver 1.0 μM, biocide concentration 1 of 4
[26] = Silver 1.0 μM, biocide concentration 2 of 4
[27] = Silver 1.0 μM, biocide concentration 3 of 4
[28] = Silver 1.0 μM, biocide concentration 4 of 4
[29] = Silver 5.0 μM, biocide concentration 1 of 4
[30] = Silver 5.0 μM, biocide concentration 2 of 4
[31] = Silver 5.0 μM, biocide concentration 3 of 4
[32] = Silver 5.0 μM, biocide concentration 4 of 4
[33] = Gold section of Table 5, first of three gold concentrations (μM, value not given), biocide concentration 1 of 4
[34] = Gold section of Table 5, first of three gold concentrations (μM, value not given), biocide concentration 2 of 4
[35] = Gold section of Table 5, first of three gold concentrations (μM, value not given), biocide concentration 3 of 4
[36] = Gold section of Table 5, first of three gold concentrations (μM, value not given), biocide concentration 4 of 4
[37] = Gold section of Table 5, second of three gold concentrations (μM, value not given), biocide concentration 2 of 4
[38] = Gold section of Table 5, second of three gold concentrations (μM, value not given), biocide concentration 3 of 4
[39] = Gold section of Table 5, second of three gold concentrations (μM, value not given), biocide concentration 4 of 4
[40] = Gold section of Table 5, third of three gold concentrations (μM, value not given), biocide concentration 1 of 4
[41] = Gold section of Table 5, third of three gold concentrations (μM, value not given), biocide concentration 2 of 4
[42] = Gold section of Table 5, third of three gold concentrations (μM, value not given), biocide concentration 3 of 4
[43] = Gold section of Table 5, third of three gold concentrations (μM, value not given), biocide concentration 4 of 4

O=[N+]([O-])c1ccc(Cl)c([N+](=O)[O-])c1 [1-chloro-2,4-dinitrobenzene]
CDI (coefficient of drug interaction), copper mixed with biocide [1]: Tox
CDI (coefficient of drug interaction), copper mixed with biocide [2]: Tox
CDI (coefficient of drug interaction), copper mixed with biocide [3]: Tox

NC(=O)NN=Cc1ccc([N+](=O)[O-])o1 [5-Nitro-2-furaldehyde semicarbazone]
CDI (coefficient of drug interaction) ([…], biocide concentration 3 of 4, E. coli): Tox
CDI (coefficient of drug interaction) ([…], biocide concentration 4 of 4, E. coli): Tox

NC(CO)C(=O)NO (racemic) [D,L-serine hydroxamate]
CDI (coefficient of drug interaction) [4]: 0.98
CDI (coefficient of drug interaction) (Copper (mM), 1st of 3 copper concentrations (head line not shown), biocide concentration 2 of 4, E. coli): 0.94
CDI (coefficient of drug interaction) [5]: 1.13
CDI (coefficient of drug interaction) [6]: Tox
CDI (coefficient of drug interaction) [7]: 0.77
CDI (coefficient of drug interaction) [8]: 0.78
CDI (coefficient of drug interaction) [9]: 1.03
CDI (coefficient of drug interaction) [10]: 3.47
CDI (coefficient of drug interaction) [11]: 0.62
CDI (coefficient of drug interaction) [12]: 0.66
CDI (coefficient of drug interaction) [13]: 1.18
CDI (coefficient of drug interaction) [14]: Tox
CDI (coefficient of drug interaction), gold + biocide (first of 3 gold concentrations, biocide concentration 1 of 4): 1.04
CDI (coefficient of drug interaction), gold + biocide (first of 3 gold concentrations, biocide concentration 2 of 4): 0.95
CDI (coefficient of drug interaction), gold + biocide [15]: 1.45
CDI (coefficient of drug interaction), gold + biocide [16]: 0.71
CDI (coefficient of drug interaction), gold + biocide (second of 3 gold concentrations, biocide concentration 1 of 4): 1.02
CDI (coefficient of drug interaction), gold + biocide (second of 3 gold concentrations, biocide concentration 2 of 4): 1.00
CDI (coefficient of drug interaction), gold + biocide [17]: 1.22
CDI (coefficient of drug interaction), gold + biocide [18]: Tox
CDI (coefficient of drug interaction), gold + biocide (third of 3 gold concentrations, biocide concentration 1 of 4): 0.96
CDI (coefficient of drug interaction), gold + biocide (third of 3 gold concentrations, biocide concentration 2 of 4): 0.94
CDI (coefficient of drug interaction), gold + biocide [19]: 1.00
CDI (coefficient of drug interaction), gold + biocide [20]: Tox
CDI [21]: 0.90
CDI [22]: 0.66
CDI [23]: 0.31
CDI [24]: Tox
CDI [25]: 0.89
CDI [26]: 0.77
CDI [27]: 0.62
CDI [28]: Tox
CDI [29]: 0.82
CDI [30]: 0.61
CDI [31]: 0.53
CDI [32]: Tox

CCCCCCCC[N+](C)(CCCCCCCC)CCCCCCCC.[Br-] [Methyltrioctyl NH4+ Br−]
CDI (coefficient of drug interaction), copper mixed with biocide (1st of 3 copper concentrations (value not shown), 1st of four biocide concentrations): 1.05
CDI (coefficient of drug interaction), copper mixed with biocide (1st of 3 copper concentrations (value not shown), 2nd of four biocide concentrations): 1.22
CDI (coefficient of drug interaction), copper mixed with biocide (1st of 3 copper concentrations (value not shown), 3rd of four biocide concentrations): 1.39
CDI (coefficient of drug interaction), copper mixed with biocide [1]: Tox
CDI (coefficient of drug interaction), copper mixed with biocide (2nd of 3 copper concentrations (value not shown), 1st of four biocide concentrations): 1.08
CDI (coefficient of drug interaction), copper mixed with biocide (2nd of 3 copper concentrations (value not shown), 2nd of four biocide concentrations): 1.14
CDI (coefficient of drug interaction), copper mixed with biocide (2nd of 3 copper concentrations (value not shown), 3rd of four biocide concentrations): 1.05
CDI (coefficient of drug interaction), copper mixed with biocide [2]: Tox
CDI (coefficient of drug interaction), copper mixed with biocide (3rd of 3 copper concentrations (value not shown), 1st of four biocide concentrations): 0.87
CDI (coefficient of drug interaction), copper mixed with biocide (3rd of 3 copper concentrations (value not shown), 2nd of four biocide concentrations): 0.80
CDI (coefficient of drug interaction), copper mixed with biocide (3rd of 3 copper concentrations (value not shown), 3rd of four biocide concentrations): 0.44
CDI (coefficient of drug interaction), copper mixed with biocide [3]: Tox
CDI (coefficient of drug interaction) [33]: 1.06
CDI (coefficient of drug interaction) [34]: 1.05
CDI (coefficient of drug interaction) [35]: 1.00
CDI (coefficient of drug interaction) [36]: Tox
CDI (coefficient of drug interaction) (Gold section of Table 5, second of three gold concentrations (μM, value not given), biocide concentration 1 of 4): 1.14
CDI (coefficient of drug interaction) [37]: 0.98
CDI (coefficient of drug interaction) [38]: 0.37
CDI (coefficient of drug interaction) [39]: Tox
CDI (coefficient of drug interaction) [40]: 0.96
CDI (coefficient of drug interaction) [41]: 1.01
CDI (coefficient of drug interaction) [42]: 0.91
CDI (coefficient of drug interaction) [43]: Tox
CDI (coefficient of drug interaction), silver + biocide (Silver 0.5 μM, 1st of four biocide concentrations, E. coli): 1.01
CDI (coefficient of drug interaction), silver + biocide (Silver 0.5 μM, 2nd of four biocide concentrations, E. coli): 0.90
CDI (coefficient of drug interaction), silver + biocide (Silver 0.5 μM, 3rd of four biocide concentrations, E. coli): Tox
CDI (coefficient of drug interaction), silver + biocide (Silver 0.5 μM, 4th of four biocide concentrations, E. coli): Tox
CDI (coefficient of drug interaction), silver + biocide (Silver 1.0 μM, 1st of four biocide concentrations, E. coli): 1.04
CDI (coefficient of drug interaction), silver + biocide (Silver 1.0 μM, 2nd of four biocide concentrations, E. coli): 1.09
CDI (coefficient of drug interaction), silver + biocide (Silver 1.0 μM, 3rd of four biocide concentrations, E. coli): Tox
CDI (coefficient of drug interaction), silver + biocide (Silver 1.0 μM, 4th of four biocide concentrations, E. coli): Tox
CDI (coefficient of drug interaction), silver + biocide (Silver 5.0 μM, 1st of four biocide concentrations, E. coli): 1.66
CDI (coefficient of drug interaction), silver + biocide (Silver 5.0 μM, 2nd of four biocide concentrations, E. coli): 1.73
CDI (coefficient of drug interaction), silver + biocide (Silver 5.0 μM, 3rd of four biocide concentrations, E. coli): Tox
CDI (coefficient of drug interaction), silver + biocide (Silver 5.0 μM, 4th of four biocide concentrations, E. coli): Tox

spiramycin
CDI (coefficient of drug interaction) [4]: 1.00
CDI (coefficient of drug interaction) [5]: 0.94
CDI (coefficient of drug interaction) [6]: Tox
CDI (coefficient of drug interaction) [7]: 0.89
CDI (coefficient of drug interaction) [8]: Tox
CDI (coefficient of drug interaction) [9]: Tox
CDI (coefficient of drug interaction) [10]: Tox
CDI (coefficient of drug interaction) [11]: 0.92
CDI (coefficient of drug interaction) [12]: 0.91
CDI (coefficient of drug interaction) [13]: 3.40
CDI (coefficient of drug interaction) [14]: Tox
CDI (coefficient of drug interaction) [33]: 1.03
CDI (coefficient of drug interaction) [34]: 1.00
CDI (coefficient of drug interaction) [35]: Tox
CDI (coefficient of drug interaction) [36]: Tox
CDI (coefficient of drug interaction) [37]: 0.67
CDI (coefficient of drug interaction) [38]: Tox
CDI (coefficient of drug interaction) [39]: Tox
CDI (coefficient of drug interaction) [40]: 0.84
CDI (coefficient of drug interaction) [41]: 0.33
CDI (coefficient of drug interaction) [42]: Tox
CDI (coefficient of drug interaction) [43]: Tox
CDI [21]: 0.83
CDI [22]: Tox
CDI [23]: Tox
CDI [24]: Tox
CDI [25]: 0.96
CDI [26]: Tox
CDI [27]: Tox
CDI [28]: Tox
CDI [29]: 0.83
CDI [30]: Tox
CDI [31]: Tox
CDI [32]: Tox

O=C1C=C(O)C(=O)c2ccccc21 [lawsone]
CDI (coefficient of drug interaction) [36]: Tox
CDI (coefficient of drug interaction) [39]: Tox
CDI (coefficient of drug interaction) [43]: Tox
CDI [24]: Tox
CDI [28]: Tox
CDI [32]: Tox

CCCCCCCC(=O)[O-].[Na+] [sodium caprylate]
CDI (coefficient of drug interaction) [6]: Tox
CDI (coefficient of drug interaction) [10]: Tox
CDI (coefficient of drug interaction) [14]: Tox
CDI (coefficient of drug interaction), gold + biocide [15]: Tox
CDI (coefficient of drug interaction), gold + biocide [16]: Tox
CDI (coefficient of drug interaction), gold + biocide [17]: Tox
CDI (coefficient of drug interaction), gold + biocide [18]: Tox
CDI (coefficient of drug interaction), gold + biocide [19]: Tox
CDI (coefficient of drug interaction), gold + biocide [20]: Tox
CDI [23]: Tox
CDI [24]: Tox
CDI [27]: Tox
CDI [28]: Tox
CDI [31]: Tox
CDI [32]: Tox

Source: US11382328B2, “Rapid drug discovery methods for pathogen inactivation” (priority 2019, dated 2022)
